Patent publication US10406127B2, “Solid oral formulation of fenretinide” (LAURENT PHARMACEUTICALS, priority 2014, dated 2019)
Read-outs that look alike come from different tables or passages of the source.

Assays:
[1] = Solubility in spray-drying solvents (visually assessed); assay type: physicochemical
Description: The solubility of Fenretinide/PVP K30 40/60% w/w mixtures was first visually assessed in various ratios of ethanol/dichloromethane. Thereafter, Spray Dryed Intermediates (SDIs) were produced from Fenretinide/PVP K30 40/60% w/w mixture solubilized at 7.5% w/v in ethanol/dichloromethane 90/10 v/v (L215-01009A), 50/50 v/v (L215-01009B) and 10/90 v/v (L215-01009C) systems for a total batch size of 15 g. The solvent was evaporated using Model GA32 Yamato® Lab Spray Dryer with the following operating parameters: 1.2 mm nozzle; about 9-15 g/min feed rate; 1.5 kg/cm^2 atomization air, and 0.35-0.55 m^3/min air flow. The inlet temperature was adjusted according to the solvent system to maintain an outlet temperature between 50-65° C.
Successive amounts of Fenretinide and PVP K30 40/60% w/w were added in 200 ml of dichloromethane until saturation of the solution. At a total solid loading of 20% w/v (40 g), the addition of Fenretinide and PVP K30 was stopped due to the increase of the solution viscosity. The solution was spray dried (lot L215-01010) with the following process parameters: 11-15 g/min feed rate; 75° C. inlet temperature; 45-48° C. outlet temperature; 0.1-0.3 MPa atomization air, and 0.40 m^3/min air flow.

[2] = fenretinide in rats; cited from earlier work

solubility ([1]; dichloromethane 100% with PVP K30, organic solvent or mixture, thermodynamic from solid, solubilised with PVP K30 in a ratio of 40/60 w/w, DCM 100%, read-out: solubility of Fenretinide): > 50 mg/mL | solubility ([1]; ethanol 100% with PVP K30, organic solvent or mixture, thermodynamic from solid, solubilised with PVP K30 in a ratio of 40/60 w/w, ethanol 100%, read-out: solubility of Fenretinide): ~34 mg/mL | solubility ([1]; ethanol/dichloromethane 50/50 v/v with PVP K30, organic solvent or mixture, thermodynamic from solid, solubilised with PVP K30 in a ratio of 40/60 w/w, ethanol/DCM 50/50 v/v, read-out: solubility of Fenretinide): > 50 mg/mL | solubility ([1]; mixture of methanol/dichloromethane (1:1)): very soluble | solubility ([1]; pure dichloromethane): very soluble
Compound: CC1=C(/C=C/C(C)=C/C=C/C(C)=C/C(=O)Nc2ccc(O)cc2)C(C)(C)CCC1 [Fenretinide, all-trans-N-(4-hydroxyphenyl) retinamide]
elimination half-life, literature data [2]: 7 to 10 h
